Experiments:
[1] = test system: Collagen Induced Arthritis (CIA) mouse model; experiment: Collagen Induced Arthritis (CIA) mouse model with implanted osmotic pump releasing MDP; type: in vivo, DBA/1J mice
Protocol: (A) illustrates the subcutaneous implantation of an osmotic pump loaded with 200 µl of 5 mg/ml MDP and released at a rate of 0.25μ1/hr onto the back of a mouse.
DBA/1J mice were induced to develop arthritis by immunization with an emulsion of complete Freund's adjuvant and type II collagen, and each mouse also carried an implanted pump as described in FIG. 5 that releases either PBS or MDP at 0.25 μl/hr.

[2] = test system: Escherichia coli; experiment: MPs in culture supernatant with or without amoxicillin, competitive ELISA using 2E7; type: cell-based; conditions: 40 μg per ml amoxicillin added at OD600=1.5
Protocol: (§1) The standard curve was used to determine the peptidoglycan concentration in a sample. […] Both bacteria were grown to OD600=1.5. Each culture was divided into two, and one treated with 40 μg/ml amoxicillin (Amx) and the other untreated. Aliquots were collected at the indicated times and the amount of MPs in the supernatant was determined by competitive ELISA. […] After removing unbound antibodies by PBS washes, the cells were incubated with a FITC-labeled anti-mouse IgG Ab before fluorescence microscopic examination.
(§2) For this test, Gram-positive bacterium Staphylococcus aureus, which has a thick peptidoglycan layer, and Gram-negative Escherichia coli, which has a thin peptidoglycan layer, were selected and grown in the presence or absence of amoxicillin. The culture was grown to a density of OD600=1.5 and then divided into two equal aliquots. To one aliquot, amoxicillin was added to a final concentration of 40 μg per ml, and to the other aliquot, no drug was added. Both cultures were allowed to continue to grow. Aliquots of cultures were collected at timed intervals and cells were removed by centrifugation. The amount of MPs in the supernatant was determined by competitive ELISA using 2E7.

[3] = test system: Staphylococcus aureus; experiment: as above; type: cell-based; conditions: 40 μg per ml amoxicillin added at OD600=1.5
Protocol: as §1, §2

[4] = Blood MP level after oral amoxicillin, competitive ELISA using 2E7; type: in vivo, mice; conditions: 100 mg/kg oral at 12-h intervals, 4 h after each feeding
Protocol: Amoxicillin was administered orally to 50 mice at 12-h intervals and three mice were sacrificed every 4 h to collect blood for peptidoglycan quantification by ELISA. […] Serial blood samples were taken. Time for blood draw and IV injection are indicated.
The MP level in serum was determined by competitive ELISA using an example of the antibody of the present disclosure, i.e. 2E7.

SMILES | clinical paw scores ([1]; increase in MDP concentration, time dependent, n=4) | development of rheumatoid arthritis ([1]; pump releasing MDP at 0.25 μl/hr vs PBS) | molecules in culture medium that inhibit 2E7 binding to MDP [2] | molecules in culture medium that inhibit 2E7 binding to MDP [3] | increase in the blood MP level [4]
CC(=O)N[C@@H]1[C@@H](O[C@H](C)C(=O)N[C@@H](C)C(=O)N[C@H](CCC(=O)O)C(N)=O)[C@H](O)[C@@H](CO)O[C@H]1O [MDP] | increased clinical paw scores | promoted the development of rheumatoid arthritis |  |  | 
CC1(C)S[C@@H]2[C@H](NC(=O)[C@H](N)c3ccc(O)cc3)C(=O)N2[C@H]1C(=O)O [amoxicillin] |  |  | sharp increase | sharp increase | 20-60%

Source: patent US20170342136A1, “MONOCLONAL ANTIBODY AGAINST MURAMYL PEPTIDES IN PREVENTION AND TREATMENT OF IMMUNE-MEDIATED DISEASES” (Agency for Science, Technology and Research, priority 2015, published 2017)
